{
  "source": "patent US20230172920A1",
  "about": "“DOSING REGIMEN FOR TREATING A DISEASE MODULATED BY CSF-1R” (Novartis AG, priority 2020, published 2023)",
  "key": {"microglia [1]": {"tested_on": "microglia", "test": "Microglial depletion in SOD1G93A mice with b.i.d. dosing (RD-2019-00111)", "assay_type": "in vivo, SOD1G93A mouse", "conditions": "5 consecutive days", "method": "Dosing was examined in the SOD1G93A mouse model of ALS, the most commonly used rodent ALS model (RD-2019-00111). Twice daily dosing (b.i.d.) was examined after 5 consecutive dosing days. Microglia were depleted in the cortex by approximately 25% and 75% following treatment with 50 mg/kg and 80 mg/kg BLZ945. BLZ945 dosed b.i.d. at 10 mg/kg was not effective (FIG. 10 A).\nFIG. 10: BLZ945-mediated microglial depletion in the cortex, as assessed by Iba1/Aif-1 immunohistological staining (A) or in spinal cord by qPCR analysis (B) Values are group means±SD (n=3). (C and D) Exposure of BLZ945 in blood and CNS brain and spinal cord 3 hours after the final dose of the study."}, "clinical": {"test": "clinical", "set-up": "species or system human", "conditions": "in vivo", "method": "On days that PK samples are obtained, the patient should take BLZ945 during the clinic visit after the pre-dose PK samples and prior to post-dose PK samples, when instructed by the study staff. Patients should take BLZ945 on an empty stomach (i.e. fast from food and drink, except water) at least 1 hour before or 2 hours after a meal. Each dose should be taken with a glass of water. Patients should be instructed to swallow whole capsules and not to chew or open them.\nThe preliminary pharmacokinetics (PK) of single dose and multiple doses of oral BLZ945 when administered alone and in combination with spartalizumab has been assessed in the ongoing study CBLZ945X2101."}, "microglia [2]": {"tested_on": "microglia", "test": "CNS microglia clearance in mice, Iba1/Aif-1 staining of cortex (RD-2019-00100)", "assay_type": "in vivo", "conditions": "for microglial depletion / microglial reduction: 5 consecutive days; for microglia brain repopulation: 169 mg/kg qd 5 days; for microglia depleted in the cortex: 169 mg/kg qd", "method": "Several studies were performed to understand PK/PD relationships for CNS microglia clearance in mice. In the first study (RD-2019-00100) mice were treated once daily (qd) for between 1 and 5 consecutive days with a dose of 169 mg/kg BLZ945. Additionally, two dose groups received 169 mg/kg BLZ945 for 5 consecutive days followed by either 3 or 7 days of drug withdrawal (washout). […] Pharmacokinetic analysis was performed on blood and brain samples taken from each group at 3 hours after the final dose on the indicated necropsy day. […] Exposures dropped by more than 1000-fold following the washout period (FIG. 8 B).\nFIG. 8: (A) Microglial depletion in the cortex, as assessed by Iba1/Aif-1 immunohistological staining at necropsy. Sections were analyzed for total number of microglia cell bodies per sample area. Values are group means±SD (n=3). (B) Exposure of BLZ945 in blood and brain 3 hours after the last dose on the day of necropsy. Values are group means (n=3).\nIn a follow-up study (RD-2019-00100), mice were treated with BLZ945 for 5 consecutive days with a range of doses from 7 to 169 mg/kg. The two lowest doses of 7 mg/kg and 20 mg/kg were ineffective for microglial depletion. […] Here the ratio of brain to blood exposures was approximately 30% at the four lowest doses and approximately 55% at the highest dose (FIG. 9 B).\nFIG. 9: Dose-dependent reduction of microglia. (A) Mice were treated for 5 consecutive days with BLZ945 at the indicated doses. Samples were analyzed histologically by Iba1/Aif-1 staining and quantified for total microglia cell bodies per sample area. Data are group means±SD (n=3). (B) Exposure of BLZ945 in blood and brain following 5 consecutive days of dosing at multiple doses. Values are group means±SD (n=3)."}, "[3]": {"test": "Blood and spinal cord exposure, 8-week SOD1G93A efficacy study", "assay_type": "in vivo, SOD1G93A mouse", "conditions": "for Kp at 3 h / concentration at 3 h: mouse; for Kp at 3 h: spinal cord relative to blood; for concentration at 3 h: blood, read-out: Blood conc.", "method": "BLZ945 was dosed over an 8-week period in a mouse model of ALS (in house data). BLZ945 was tested for efficacy in preventing or delaying disease progression in the SOD1G93A ALS mouse (RD-2019-00092). […] Normal body weight gain is also impaired in this model. These physiological impairments are considered as mechanistic readouts given that they best recapitulate the clinical disease phenotype (Turner et al 2013). Animals were dosed from 8 to 16 weeks of age with daily (q.d) doses of BLZ945 at either 65 mg/kg, 170 mg/kg, or 170 mg/kg delivered intermittently with a 7 day ON/7 day OFF regimen.\nMicroglia were depleted by greater than 90% with the high dose (170 mg/kg) of BLZ945 and by about 50% with the low dose (65 mg/kg). […] Blood and CNS exposure to BLZ945 were measured at 3 hours post-dose on the day of necropsy (Table 8). BLZ945 spinal cord exposure ratios (relative to blood) were consistent across dose groups at approximately 0.4 (Table 9)."}, "[4]": {"tested_on": "MC38 syngeneic mouse model", "test": "MC38 syngeneic mouse model, tumor growth", "assay_type": "in vivo, C57BL/6N mice", "conditions": "repeat with suboptimal anti-PD-1 dose (5 mg/kg); BLZ945 4 days on/3 days off", "method": "In another set of experiments using the MC38 syngeneic mouse model in C57BL/6N mice two different schedules of BLZ945 were compared for efficacy (FIG. 3) using once weekly dosing of BLZ945 and 4 days on/3 days off dosing of BLZ945 alone and in combination with anti-PD-1. […] On day 14 post treatment start, there was a trend of tumor growth inhibition, corresponding to a % T/C vs. control of 28%.\nDoses of 200 mg/kg BLZ945 and 10 mg/kg anti-PD-1 were given on the schedules indicated and tumor volumes measured on day 14 after study initiation. Statistical significance was calculated using one-way ANOVA with post hoc Dunnett's test for comparison of treatment versus control group.\nEfficacy testing was repeated with a suboptimal dose of anti-PD-1 (5 mg/kg) in order to test for an additive effect of BLZ945 to be observed when given in combination."}},
  "note": "Where two headings read alike, the source gives them in different places.",
  "data": [
    {"compound": "CNC(=O)c1cc(Oc2ccc3nc(N[C@@H]4CCCC[C@H]4O)sc3c2)ccn1", "note": "[BLZ945, 4-((2-(((1R,2R)-2-hydroxycyclohexyl)amino)benzo[d]thiazol-6-yl)oxy)-N-methylpicolinamide]", "values": [
      {"measurement": "microglia depletion in the cortex", "setting": "microglia [1]; 10 mg/kg b.i.d.", "result": "not effective"},
      {"measurement": "reduction of microglial markers in spinal cord (qPCR)", "setting": "microglia [1]; 10 mg/kg b.i.d.", "result": "small but non-significant effect"},
      {"measurement": "microglia depleted in spinal cord (qPCR of microglial markers)", "setting": "microglia [1]; 50 mg/kg b.i.d.", "result": "approximately 55%"},
      {"measurement": "microglia depleted in the cortex", "setting": "microglia [1]; 50 mg/kg b.i.d.", "result": "approximately 25%"},
      {"measurement": "microglia depleted in spinal cord (qPCR of microglial markers)", "setting": "microglia [1]; 80 mg/kg b.i.d.", "result": "~85", "unit": "%"},
      {"measurement": "microglia depleted in the cortex", "setting": "microglia [1]; 80 mg/kg b.i.d.", "result": "~75", "unit": "%"},
      {"measurement": "mean accumulation index (Racc)", "setting": "clinical; human", "result": "1.07-1.24"},
      {"measurement": "AUC(0-t)", "setting": "clinical; human, po, 150 mg", "result": 102, "unit": "µg·h/mL"},
      {"measurement": "Cmax", "setting": "clinical; human, po, 150 mg", "result": 6950, "unit": "ng/mL"},
      {"measurement": "AUC(0-t)", "setting": "clinical; human, po, 300 mg", "result": 203, "unit": "µg·h/mL"},
      {"measurement": "Cmax", "setting": "clinical; human, po, 300 mg", "result": 13900, "unit": "ng/mL"},
      {"measurement": "AUC(0-t)", "setting": "clinical; human, po, 600 mg", "result": 378, "unit": "µg·h/mL"},
      {"measurement": "Cmax", "setting": "clinical; human, po, 600 mg", "result": 24500, "unit": "ng/mL"},
      {"measurement": "AUC(0-t)", "setting": "clinical; human, po, 800 mg", "result": 413, "unit": "µg·h/mL"},
      {"measurement": "Cmax", "setting": "clinical; human, po, 800 mg", "result": 22700, "unit": "ng/mL"},
      {"measurement": "AUC(0-t)", "setting": "clinical; human, po, 1200 mg", "result": 599, "unit": "µg·h/mL"},
      {"measurement": "Cmax", "setting": "clinical; human, po, 1200 mg", "result": 32700, "unit": "ng/mL"},
      {"measurement": "absorption", "setting": "clinical; po", "result": "rapid absorption"},
      {"measurement": "microglial depletion", "setting": "microglia [2]; 7 mg/kg", "result": "ineffective"},
      {"measurement": "microglial depletion", "setting": "microglia [2]; 20 mg/kg", "result": "ineffective"},
      {"measurement": "microglial reduction", "setting": "microglia [2]; 60 mg/kg", "result": 25, "unit": "%"},
      {"measurement": "microglial reduction", "setting": "microglia [2]; 100 mg/kg", "result": 60, "unit": "%"},
      {"measurement": "microglia brain repopulation", "setting": "microglia [2]; then 3 days washout", "result": "~80 % of vehicle"},
      {"measurement": "microglia brain repopulation", "setting": "microglia [2]; then 7 days washout", "result": "complete repopulation"},
      {"measurement": "microglia depleted in the cortex", "setting": "microglia [2]; day 2", "result": "approximately 50%"},
      {"measurement": "microglia depleted in the cortex", "setting": "microglia [2]; day 5", "result": "approximately 90%"},
      {"measurement": "microglial reduction", "setting": "microglia [2]; 169 mg/kg", "result": 100, "unit": "%"},
      {"measurement": "Spinal Cord Conc.", "setting": "[3]; 65 mg/kg q.d., 3 h post-dose", "result": 11799.8, "unit": "pmol/g"},
      {"measurement": "Spinal Cord Conc.", "setting": "[3]; 170 mg/kg CONT, 3 h post-dose", "result": 28358.8, "unit": "pmol/g"},
      {"measurement": "Spinal Cord Conc.", "setting": "[3]; 170 mg/kg INT (7 day ON/7 day OFF), 3 h post-dose", "result": 18573.5, "unit": "pmol/g"},
      {"measurement": "Kp at 3 h", "setting": "[3]; SOD1G93A (transgenic ALS model), 170 mg/kg CONT, 3 h post-dose, read-out: Spinal Cord/Blood ratio", "result": 0.42},
      {"measurement": "concentration at 3 h", "setting": "[3]; SOD1G93A, 65 mg/kg, 65 mg/kg q.d., 3 h post-dose", "result": 29.3, "unit": "µM"},
      {"measurement": "concentration at 3 h", "setting": "[3]; SOD1G93A, 170 mg/kg, 170 mg/kg CONT, 3 h post-dose", "result": 66.3, "unit": "µM"},
      {"measurement": "concentration at 3 h", "setting": "[3]; SOD1G93A, 170 mg/kg, 170 mg/kg INT (7 day ON/7 day OFF), 3 h post-dose", "result": 50.4, "unit": "µM"},
      {"measurement": "Kp at 3 h", "setting": "[3]; SOD1G93A, 65 mg/kg q.d., 3 h post-dose, read-out: Spinal Cord/Blood ratio", "result": 0.42},
      {"measurement": "Kp at 3 h", "setting": "[3]; SOD1G93A, 170 mg/kg INT (7 day ON/7 day OFF), 3 h post-dose, read-out: Spinal Cord/Blood ratio", "result": 0.36},
      {"measurement": "Kp at 3 h", "setting": "[3]; SOD1G93A, across dose groups, 3 hours post-dose, read-out: spinal cord exposure ratios (relative to blood)", "result": "~0.4"},
      {"measurement": "tumor growth inhibition", "setting": "[4]", "result": "not either of the single agent groups dosed with BLZ945 or anti-PD-1 resulted in a statistically significant tumor growth inhibition"}
    ]}
  ]
}
